In PubChem BioAssay (NCI):
Several values for one entry are separate records, joined by “and”; a condition that tells them apart may be missing. Equal entries are not always repeated.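 These data come from cells grown in 96-well plates and exposed to compound for 48 hours at five concentrations. GI50: concentration for 50% inhibition of growth. TGI denotes the concentration required for complete inhibition of growth.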

Experiments:
Assay in all cases: NCI anticancer screen, dose series, 48 h
[1] = test system: IGROV1 ovarian
[2] = test system: HS 578T breast
[3] = test system: HOP-92 NSCLC
[4] = test system: 786-0 renal
[5] = test system: HCC-2998 colon
[6] = test system: SW-620 colon
[7] = test system: NCI/ADR-RES ovarian
[8] = test system: MCF7 breast
[9] = test system: SK-MEL-2 melanoma
[10] = test system: SR leukemia
[11] = test system: KM12 colon
[12] = test system: TK-10 renal
[13] = test system: NCI-H460 lung
[14] = test system: SN12C renal
[15] = test system: NCI-H226 lung
[16] = test system: NCI-H522 lung
[17] = test system: SF-268 CNS
[18] = test system: OVCAR-5 ovarian
[19] = test system: BT-549 breast

Structure (SMILES)	TGI [1] [µM]	TGI [2] [µM]	TGI [3] [µM]	TGI [4] [µM]	TGI [5] [µM]	TGI [6] [µM]	TGI [7] [µM]	TGI [8] [µM]	TGI [9] [µM]	TGI [10] [µM]	TGI [11] [µM]	TGI [12] [µM]	TGI [13] [µM]	TGI [14] [µM]	TGI [15] [µM]	TGI [16] [µM]	TGI [17] [µM]	TGI [18] [µM]	TGI [19] [µM]	GI50 [15]
COc1cc2c3c(c1)CCCN3CCC2	> 10	> 10	> 10	> 10	> 10	> 10	> 10	> 10	> 10	> 10	> 10	> 10	> 10	> 10	> 10	> 10	> 10			
CCN(CC)CC1CCCCN1CC(=O)N1c2ccccc2C(=O)Nc2cccnc21 (stereo not given)	> 100	> 100	> 100	> 100	> 100	> 100	67.5	> 100	> 100	58.1	> 100	> 100	> 100	> 100	98.8	> 100	> 100	> 100		
CC1(C)C=Cc2c(cc(O)c3c(=O)c4cc(Cl)ccc4[nH]c23)O1	> 10		7.79	> 10	> 10	> 10	5.97	> 10	9.75	> 10	8.75	> 10	> 10	> 10		6.46	> 10	6.16	8.06	
COC(=O)[C@@H]1CC(C(C[N+](=O)[O-])c2ccc(O[Si](C)(C)C(C)(C)C)cc2)C(=O)N1C(=O)OC(C)(C)C (stereo not given in full)	> 100	> 100	> 100	> 100		> 100		> 100	> 100	> 100	> 100	> 100		> 100	> 100	> 100	> 100	> 100		12.6 µM and 35 µM
CCOC(=O)/C(C=Nc1c(C)n(C)n(-c2ccccc2)c1=O)=C(/C)O	> 100		> 100	> 100	> 100	> 100	> 100	> 100	> 100	> 100	> 100	> 100		> 100	> 100	> 100		> 100	> 100	
CCC(C=O)P1(=O)OC(C)(C)CN1C(C)(C)C (stereo not given)	> 100			> 100	> 100	> 100	> 100	> 100	> 100	> 100	> 100	> 100	> 100		> 100		> 100	> 100	> 100	
C[N+](C)(C)CCc1ccccc1	> 100		> 100	> 100	> 100	> 100			> 100	> 100	> 100	> 100	> 100	> 100	> 100	> 100	> 100	> 100		
c1ccc2c(c1)C1CCCCCC21N1CCOCC1 (stereo not given)	> 100			> 100	> 100	> 100			> 100		> 100	> 100	> 100	> 100	> 100	> 100	> 100	> 100		
COc1ccc2c(c1)C(=O)C1CC(=O)CCC21 (stereo not given)	> 100		> 100	> 100	> 100	> 100			> 100	> 100	> 100	> 100	> 100	> 100	> 100	> 100	> 100	> 100		
CC(=O)CN(Cc1cc(C)c2c(c1)c1ccccc1n2Cc1ccccc1)S(=O)(=O)c1ccc(C)cc1	> 100		> 100	> 100	> 100	> 100			> 100	> 100	> 100	> 100			> 100	> 100	> 100			
O=C(CSc1nnc(Cc2ccccc2)o1)Nc1ccccc1	> 100			> 100	> 100				> 100		> 100	> 100	> 100	> 100	> 100	> 100	> 100	> 100		
COc1c(F)c(F)c(/C(O)=C\c2nc3ccccc3[nH]c2=O)c(F)c1F	> 10		> 10	5.99	> 10	> 10		> 10		> 10	> 10	> 10		> 10			> 10			
CC1(C)OC(=O)C(C#N)=C1/C=C/c1coc2ccc(Cl)cc2c1=O	> 100			> 100	> 100	> 100			50.9	> 100	> 100		43.8	96	92.6	> 100	> 100	> 100		
O=S1(=O)OCCOS(=O)(=O)C1(F)Br		> 100		> 100	> 100	> 100	> 100	> 100	> 100	> 100	> 100	> 100		> 100	> 100	> 100	> 100	> 100		
CSc1nc2c(c(=O)[nH]1)N=C(c1ccc([N+](=O)[O-])cc1)CC(c1ccccc1)N2 (stereo not given)	> 100		> 100	> 100	57.7	91.7	> 100	57.6	88.5	> 100	33.2			> 100	> 100	> 100		> 100	> 100	
